The target of experiment [1] is Gastrin/cholecystokinin type B receptor (Cavia porcellus). As to the kind of experiment: Ability to inhibit the binding of [125I]CCK-8 to Cholecystokinin type B receptor in guinea pig cortex.
For experiment [2] the target is unchanged. The experiment is described as follows: Ability to inhibit the binding of [125I]-gastrin to gastric glands in guinea pig.
The target is the same in experiment [3]. As to the kind of experiment: Ability to inhibit the binding of [125I]CCK-8 to Cholecystokinin type B receptor in guinea pig cortex. This is another data set of the same source.

The structures appear in SMILES notation.

The term IC50 denotes the concentration at which inhibition is half-maximal. High values mean weaker potency, low ones greater potency. With `CC(C)(C)OC(=O)CN1C(=O)C(NC(=O)Nc2ccc(Cl)cc2)CCc2ccccc21` (configuration not stated) [{3-[3-(4-Chloro-phenyl)-ureido]-2-oxo-2,3,4,5-tetrahydro-benzo[b]azepin-1-yl}-acetic acid tert-butyl ester], the IC50 in experiment [1] turned out to be 180 nM; in experiment [2], 120 nM.

As to `CN1CCN(C(=O)CN2C(=O)C(NC(=O)Nc3ccc(Cl)cc3)N=C(c3ccccc3)c3ccccc32)CC1` (configuration not stated) [1-(4-Chloro-phenyl)-3-{1-[2-(4-methyl-piperazin-1-yl)-2-oxo-ethyl]-2-oxo-5-phenyl-2,3-dihydro-1H-benzo[e][1,4]diazepin-3-yl}-urea], the IC50 came out at 8 nM in experiment [1] and 2.6 nM in experiment [2].

Regarding `O=C(Nc1cccc2ccccc12)NC1CCc2ccccc2N(CC(=O)N2CCCC2)C1=O` (configuration not stated) [1-Naphthalen-1-yl-3-[2-oxo-1-(2-oxo-2-pyrrolidin-1-yl-ethyl)-2,3,4,5-tetrahydro-1H-benzo[b]azepin-3-yl]-urea], the IC50 in experiment [1] came to 650 nM; in experiment [2], 460 nM.

In the case of `COc1cccc(NC(=O)NC2CCc3ccccc3N(CC(=O)O)C2=O)c1` (configuration not stated) [{3-[3-(3-Methoxy-phenyl)-ureido]-2-oxo-2,3,4,5-tetrahydro-benzo[b]azepin-1-yl}-acetic acid], the IC50 in experiment [1] was determined as 8600 nM; in experiment [2], 3100 nM.

Turning to `CC(C)(C)OC(=O)CN1C(=O)C(NC(=O)Nc2cccc3ccccc23)CCc2ccccc21` (configuration not stated) [[3-(3-Naphthalen-1-yl-ureido)-2-oxo-2,3,4,5-tetrahydro-benzo[b]azepin-1-yl]-acetic acid tert-butyl ester], the IC50 in experiment [3] was determined as 150 nM; in experiment [2], 480 nM.

Turning to `Cc1cccc(NC(=O)NC2CCc3ccccc3N(CC(=O)N3CCN(C)CC3)C2=O)c1` (configuration not stated) [1-{1-[2-(4-Methyl-piperazin-1-yl)-2-oxo-ethyl]-2-oxo-2,3,4,5-tetrahydro-1H-benzo[b]azepin-3-yl}-3-m-tolyl-urea], the half-inhibitory concentration (IC50) in experiment [3] came out at 5000 nM; in experiment [2], 610 nM.

These data come from BindingDB's records for doi:10.1016/S0960-894X(00)80683-6 (1993).
